Where a SMILES comes first, the peptide text is derived from it. Bridges are numbered along the chain shown (N, C = ends). [ ]: non-standard residue; d: D form. 2Nal = N[C@@H](Cc1ccc2ccccc2c1)C(=O)O; AEF = NCCOc1ccc(C[C@H](N)C(=O)O)cc1; 3Pal = N[C@@H](Cc1cccnc1)C(=O)O; αMeL = CC(C)C[C@](C)(N)C(=O)O; Dab = NCC[C@H](N)C(=O)O
Tests used:
human IL-23R = molecular target: T1, human IL-23R (Homo sapiens, UniProt Q5VWK5); assay: biochemical; conditions: for Emax: read-out: % displacement (hIL-23R NIuc)
T1 sequence (Q5VWK5 22-629): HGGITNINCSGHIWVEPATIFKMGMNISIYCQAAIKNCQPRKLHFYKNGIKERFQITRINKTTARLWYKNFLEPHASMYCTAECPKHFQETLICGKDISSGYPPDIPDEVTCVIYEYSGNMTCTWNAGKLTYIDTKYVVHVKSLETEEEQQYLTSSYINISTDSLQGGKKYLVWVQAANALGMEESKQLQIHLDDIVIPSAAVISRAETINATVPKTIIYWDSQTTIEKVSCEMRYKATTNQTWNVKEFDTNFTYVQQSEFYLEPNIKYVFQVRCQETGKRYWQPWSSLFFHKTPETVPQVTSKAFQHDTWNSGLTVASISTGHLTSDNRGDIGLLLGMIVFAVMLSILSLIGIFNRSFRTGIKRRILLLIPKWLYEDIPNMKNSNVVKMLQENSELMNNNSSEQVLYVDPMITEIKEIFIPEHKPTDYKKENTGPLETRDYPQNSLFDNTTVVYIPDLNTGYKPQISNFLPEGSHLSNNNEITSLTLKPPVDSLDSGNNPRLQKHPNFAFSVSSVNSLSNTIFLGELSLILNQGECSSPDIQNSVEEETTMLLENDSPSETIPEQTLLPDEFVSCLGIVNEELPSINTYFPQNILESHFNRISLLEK
Summary of the method: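 Membranes from HEK293 cells stably expressing Nluc-tagged human IL-23R were incubated 2 h at room temperature with test compound and a fluorophore-labelled tracer. After substrate addition, loss of BRET (TAMRA over luciferase emission) reported tracer displacement. A 4PL fit gave IC50 values.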

[1] = molecular target: IL-23 mediated signalling (Homo sapiens, UniProt Q5VWK5); assay: Functional inhibition of IL-23 mediated STAT3 signalling (phospho-STAT3 MSD) in DB cells; format: cell-based; conditions: Table 3-2, DB cells, hIL-23 at EC80
Excerpt: Upon binding of IL-23, the IL-23R forms a heterodimer signalling complex together with IL-12R β1, which through the JAK2/STAT3 pathway promotes phosphorylation of STAT3 to form phospho-STAT3.
For compounds tested in this assay, the response was normalized relative to control values to calculate the IC50 and maximal inhibitory response from a concentration response curve of the compound in presence of a fixed concentration of human IL-23.
The assay procedure was as follows. […] Following preincubation of the DB cells with inhibitor for 15 min in a cell incubator (37 °C, 5% CO2), 20 µL of the prepared 3X the EC80 of hIL-23 solution was added to each well and incubated for 90 min in a cell incubator (37 °C, 5% CO2). For some wells buffer only or IL-23 only corresponding to the EC80 was added to obtain readouts needed for normalization. To terminate the assay, the plate was spun at 1000 G for 5 min to pellet cells, the supernatant removed using an 8-channel manual pipette, and then added 50 µL/well Complete Lysis Buffer from the MSD STAT3 kit (Cat# K150SVD, Mesoscale) to the cell pellet. To completely lyse cells to release phospho-STAT3 for detection, the plate was shaken for 10 min at room temperature (500 rpm) sealed with aluminium foil and placed at -80 °C for a minimum of 15 min. Detection of the phospho-STAT3 level in the cell lysate from the individual wells was determined using the MSD STAT3 kit (Cat# K150SVD, Mesoscale) and read on a Meso QuickPlex SQ 120 plate reader (Mesoscale).
For data analysis raw data counts from the Meso QuickPlex SQ 120 plate reader were normalized relative to the response by the EC80 of h1L-23 alone (no compound added) and the buffer level. Compound potency (IC50) and maximal inhibitory response (% inhibition) were estimated by computer-aided curve fitting using a 4-parameter logistic (4PL) nonlinear model. […] Table 3-2: hIL-23 (pSTAT3) antagonist IC50 and % inhibition

[2] = Peptide stability in simulated intestinal fluid (SIF); format: in vitro ADME; conditions: 37 °C, porcine pancreatin; for remaining at 1 h, 10 µM / remaining at 4 h, 10 µM: pig; for remaining at 1 h, 10 µM: pH 6.8, 1 h; for remaining at 4 h, 10 µM / SIF (% remaining 4 h): pH 6.8, 4 h; for SIF (% remaining 4 h): 10 µM
Description: (§1) SGF was prepared by dissolving sodium chloride (0.2 g) in 50 mL of water. A volume of 0.7 mL of 10 M HCl was added to adjust the pH of the solution to 1.2 and the volume made up to 100 mL with water. […] SIF was prepared by dissolving monobasic potassium phosphate (0.68 g) in 50 mL of water and adjusting the pH to 6.8 with 1 M NaOH. The volume was subsequently made up to 100 mL with water. 200 mg porcine pancreatin (P1625, Sigma Aldrich) was gently dissolved into 20 mL preheated (37 °C) solution (10 g/L) immediately prior to the incubation.
(§2) The incubation was performed at 37 °C with gentle shaking. […] After the last timepoint, the sampling plate was mixed for 10 min on a shaking table and centrifuged 10 min at 2200 g. 70 µL resulting supernatant was diluted with 150 µL water, mixed and centrifugated before analysis by liquid chromatography high resolution mass spectrometry. […] Percent remaining at each timepoint was calculated relative to timepoint zero based on absolute peak areas.
Compounds with a SIF stability (after 4 h) above 70% are considered highly SIF stable.

[3] = Peptide stability in simulated gastric fluid (SGF); format: in vitro ADME; conditions: 37 °C, porcine pepsin; for remaining at 1 h, 10 µM / remaining at 4 h, 10 µM: pig, simulated gastric fluid (SGF) with porcine pepsin (3.2 g/L); for remaining at 1 h, 10 µM: pH 1.2, 1 h, read-out: SGF (% remaining 1 h)
Description: as §1, §2
Compounds with a SGF stability (after 4 h) above 70% are considered highly SGF stable. […] Table 3-4: SGF data

[4] = read-out: SIF (% remaining 4 h)
[5] = pH 1.2, 10 µM, pH 1.2, 4 h, read-out: SGF (% remaining 4 h)
[6] = SAR tables, % peptide remaining, read-out: SIF (% after 4 h)

SMILES | % displacement (hIL-23R NIuc) (human IL-23R) [%] | IC50 (human IL-23R) [nM] | Ki (human IL-23R) [nM] | IC50 ([1]; read-out: hIL-23 (pSTAT3) antagonist IC50) [nM] | Emax ([1]; maximal inhibitory response, read-out: hIL-23 (pSTAT3) antagonist % inhibition) [%] | remaining at 1 h, 10 µM [2] [%] | remaining at 4 h, 10 µM [2, 4] [%] | remaining at 1 h, 10 µM ([3]; pH 1.2, 10 µM) [%] | remaining at 4 h, 10 µM [3, 5] [%] | Emax (human IL-23R) [%] | remaining at 4 h, 10 µM [2, 6] [%] | SIF (% remaining 4 h) [2] [%] | SGF (% remaining 4 h) ([3]; 10 µM, pH 1.2, 4 h) [%] | remaining at 4 h, 10 µM ([3]; pH 1.2, SAR tables, % peptide remaining, 10 µM, pH 1.2, 4 h, read-out: SGF (% after 4 h)) [%]
CC(=O)N[C@H]1CCSC[C@@H](C(=O)N[C@@H](Cc2ccc(OCCN)cc2)C(=O)N[C@@H](Cc2c[nH]c3ccccc23)C(=O)N[C@@](C)(CCCCN)C(=O)N[C@@H](CCC(=O)O)C(=O)N[C@@H](CC(N)=O)C(=O)NCC(N)=O)NC(=O)[C@H](CCC(N)=O)NC(=O)[C@H](Cc2c[nH]c3ccccc23)NC(=O)[C@H]([C@@H](C)O)NC(=O)[C@H](CCC(N)=O)NC1=O [Compound C, [Ac]-[Abu](16i)QTWQC(16i)[Y(2-aminoethoxy)]W[2-Me-Lys]ENG-[NH2], reference compound] | 102 | 2.6 | 2.11 | 13 | 99 | – | – | – | – | – | – | – | – | –
CC[C@H](C)[C@@H]1NC(=O)[C@@H]2CCCCNC(=O)CC[C@@H](C(=O)NCCc3cccnc3)NC(=O)[C@](C)(C(C)C)NC(=O)[C@H](Cc3ccc4ccccc4c3)NC(=O)[C@H](Cc3ccc(OCCN)cc3)NC(=O)[C@H](CCC(=O)N2)NC(=O)[C@H](CCC(N)=O)NC(=O)[C@H](Cc2c[nH]c3ccccc23)NC(=O)[C@H](C(C)C)NC1=O [Compound 26, K(1c)(6c)^†IVWQE(6c)[Y(2-aminoethoxy)][2-Nal][2-Me-Val]E(1c)-[NH-2-(pyridin-3-yl)ethyl]] | 101 | 320 | – | – | – | 97 | 96 | 95 | 96 | – | – | – | – | –
CNC(=O)[C@H](Cc1cccnc1)NC(=O)[C@H](CCN)NC(=O)[C@@H]1CCC(=O)N[C@H]2CCCCNC(=O)CC[C@H](NC(=O)[C@H](CCC(N)=O)NC(=O)[C@H](Cc3c[nH]c4ccccc34)NC(=O)CNC2=O)C(=O)N[C@@H](Cc2ccc(OCCN)cc2)C(=O)N[C@@H](Cc2ccc3ccccc3c2)C(=O)N[C@@](C)(CC(C)C)C(=O)N1 [Compound 104, [iso-Lys](1c)^†(6c)GWQE(6c)[Y(2-aminoethoxy)][2-Nal][2-Me-Leu]E(1c)[Dab][3-(3-Pyridyl)-Ala]-[NHMe]] | – | 0.5 | – | – | – | 106 | 89 | 100 | 106 | 101 | – | – | – | –
CNC(=O)[C@H](Cc1cccnc1)NC(=O)[C@H](CCN)NC(=O)[C@@H]1CCC(=O)NCCCC[C@@H]2NC(=O)CC[C@H](NC(=O)[C@H](CCC(N)=O)NC(=O)[C@H](Cc3c[nH]c4ccccc34)NC(=O)CCCNC2=O)C(=O)N[C@@H](Cc2ccc(OCCN)cc2)C(=O)N[C@@H](Cc2ccc3ccccc3c2)C(=O)N[C@@](C)(CC(C)C)C(=O)N1 [Compound 98, K(1c)(6c)^†[4-Aminobutanoyl]WQE(6c)[Y(2-aminoethoxy)][2-Nal][2-Me-Leu]E(1c)[Dab][3-(3-Pyridyl)-Ala]-[NHMe]] | 101 | 0.024 | – | – | – | 88 | 58 | 101 | 96 | – | – | – | – | –
CNC(=O)[C@H](Cc1cccnc1)NC(=O)[C@H](CCN)NC(=O)[C@@H]1CCC(=O)NCCCC[C@@H]2NC(=O)CC[C@H](NC(=O)[C@H](CCC(N)=O)NC(=O)[C@H](Cc3c[nH]c4ccccc34)NC2=O)C(=O)N[C@@H](Cc2ccc(OCCN)cc2)C(=O)N[C@@H](Cc2ccc3ccccc3c2)C(=O)N[C@@](C)(CC(C)C)C(=O)N1 [Compound 43, K(1c)(6c)^†WQE(6c)[Y(2-aminoethoxy)][2-Nal][2-Me-Leu]E(1c)[Dab][3-(3-Pyridyl)-Ala]-[NHMe]] (KWQE[AEF][2Nal][αMeL]E[Dab][3Pal]-NHMe; lactam 1-8, N-4) | – | 80 | – | – | – | 91 | – | 110 | 108 | 100 | 102 | – | – | –
CC[C@H](C)[C@@H]1NC(=O)[C@@H]2CCCCNC(=O)CC[C@@H](C(=O)N[C@@H](CCN)C(=O)N[C@@H](Cc3cccnc3)C(=O)NC)NC(=O)CNC(=O)[C@H](Cc3ccc4ccccc4c3)NC(=O)[C@H](Cc3ccc(OCCN)cc3)NC(=O)[C@H](CCC(=O)N2)NC(=O)[C@H](CCC(N)=O)NC(=O)[C@H](Cc2c[nH]c3ccccc23)NC(=O)[C@H](C(C)C)NC1=O [Compound 68, K(1c)(6c)^†IVWQE(6c)[Y(2-aminoethoxy)][2-Nal]GE(1c)[Dab][3-(3-Pyridyl)-Ala]-[NHMe]] | – | 0.072 | – | – | – | 33 | – | 91 | – | 99 | 0 | 0 | 95 | 95
CC[C@H](C)[C@@H]1NC(=O)[C@@H]2CCCCNC(=O)CC[C@@H](C(=O)N[C@@H](Cc3cnc[nH]3)C(=O)N[C@@H](Cc3cccnc3)C(=O)NC)NC(=O)[C@](C)(CC(C)C)NC(=O)[C@H](Cc3ccc4ccccc4c3)NC(=O)[C@H](Cc3ccc(OCCN)cc3)NC(=O)[C@H](CCC(=O)N2)NC(=O)[C@H](CCC(N)=O)NC(=O)[C@H](Cc2c[nH]c3ccccc23)NC(=O)[C@H](C(C)C)NC1=O [Compound 69, K(1c)(6c)^†IVWQE(6c)[Y(2-aminoethoxy)][2-Nal][2-Me-Leu]E(1c)H[3-(3-Pyridyl)-Ala]-[NHMe]] | – | 0.12 | – | – | – | 89 | – | 112 | 102 | 101 | 33 | – | – | –
CC[C@H](C)[C@@H]1NC(=O)[C@@H]2CCCCNC(=O)CC[C@@H](C(=O)N[C@@H](Cc3cnc4ccccc4c3)C(=O)N[C@@H](Cc3cccnc3)C(=O)NC)NC(=O)[C@](C)(CC(C)C)NC(=O)[C@H](Cc3ccc4ccccc4c3)NC(=O)[C@H](Cc3ccc(OCCN)cc3)NC(=O)[C@H](CCC(=O)N2)NC(=O)[C@H](CCC(N)=O)NC(=O)[C@H](Cc2c[nH]c3ccccc23)NC(=O)[C@H](C(C)C)NC1=O [Compound 71, K(1c)(6c)^†IVWQE(6c)[Y(2-aminoethoxy)][2-Nal][2-Me-Leu]E(1c)[3-(3-Quinolinyl)-Ala][3-(3-Pyridyl)-Ala]-[NHMe]] | 100 | 0.084 | – | – | – | 55 | – | 100 | 100 | – | 6 | 6 | – | –
